The values that follow come from a melting point compilation (Tetko et al.).

Take `Nc1ccccc1Cn1ccnc1`: the melting point – broadly, the temperature of the solid-liquid transition – was in the range of 81 to 83 °C.
To `c1cncc(-c2ncn[nH]2)c1` belongs 173 to 175 °C; to `O=C(O)[C@@H](Cl)c1ccccc1`, 56 to 58 °C; to `NC(=O)C1CCc2ccccc2N1` (stereo not drawn), 115 to 117 °C.
For `O=Cc1ccc(OCc2ccc(Cl)cc2)cc1`, the melting point lay in the range of 72 to 74 °C.
To `COc1ccc(-c2noc(CCC(=O)O)n2)cc1OC` belongs 120 to 122 °C; to `N#CC1(CS(N)(=O)=O)CCCC1`, 72 to 74 °C; to `Cc1nc2ccccc2c(=O)n1-c1ccc(C(=O)O)cc1`, 220 to 222 °C.
For `Clc1ccnc2[nH]ccc12`, the melting point was 176 to 181 °C.
Under `CCC(=O)c1ccc(C(=O)OC)cc1` stands 82 to 84 °C; under `NC(=O)N1CCCC1C(=O)O` (stereo not drawn), 205 to 207 °C; under `COC(=O)C1=NN(c2ccccc2)C(c2ccccc2)C1` (stereo not drawn), 125 to 127 °C.
Molecule `O=C(O)c1ccc(OCc2ccccc2)nc1` yielded a melting point of 168 to 170 °C.
`Cc1cc2nnc(S)n2c(C)n1` displayed a melting point of 250 to 252 °C.
In turn, `CCOC(=O)c1c(N)sc2c1CCCS2=O` (stereo not drawn) had a melting point of 189 to 191 °C.
For the molecule `CN(C)C(=O)c1c[nH]c2ccccc12`, the melting point lay in the range of 234 to 236 °C.
Regarding `COc1ccc(N)cc1C`, the melting point was in the range of 31 to 33 °C.
`NC(=O)c1coc(Br)c1` registered a melting point of 165 to 167 °C.
To `O=C(O)c1cnc2cc3c(cc2c1O)OCCO3` belongs 274 to 276 °C.
The molecule `NS(=O)(=O)c1cc(Cl)c(F)c(C(=O)O)c1` gave a melting point of 228 to 230 °C.
Under `CC(=O)c1cccc(N(S(C)(=O)=O)S(C)(=O)=O)c1` stands 185 to 187 °C.
In turn, `O=C(O)CC(NC(=O)OCc1ccccc1)c1ccccc1` (stereo not drawn) gave a melting point of 124 to 126 °C.
To `O=C(Nc1ccccc1)C(Cl)C(=O)c1ccccc1` (stereo not drawn) belongs 113 to 115 °C; to `NC1(C(=O)O)CCN(Cc2ccccc2)C1` (stereo not drawn), 216 to 218 °C.
Under `O=C(O)C1CCCN(C(=O)NC2CCCC2)C1` (stereo not drawn) stands 167 to 169 °C.
`COc1ccc(S(=O)(=O)N2CCCCCC2)cc1NC(=O)CCl`: the melting point was in the range of 105 to 107 °C.
To `O=c1c2ccccc2nc(Cl)n1-c1ccccc1` belongs 127 to 129 °C; to `O=C(O)CCOc1ccc2ccccc2c1`, 66 to 68 °C.
To `O=C(O)C(=O)NCCCc1ccccc1` belongs 120 to 122 °C; to `Nc1ccc(Sc2nc3ccccc3[nH]2)cc1`, 224 to 226 °C; to `N#Cc1cc2c([nH]c1=O)CCN(CCc1ccccc1)C2`, 219 to 221 °C.
`Nc1ccnn1Cc1cccnc1` had a melting point of 86 to 88 °C.
To `Nc1ccccc1NC(=O)c1ccncc1` belongs 179 to 181 °C; to `O=C(O)COc1ccc(Cl)c2cccnc12`, 209 to 211 °C.
Under `COc1ccc(-n2ccnc2S)cc1` stands 175 to 177 °C; under `CC1C=CC2C(=O)N(C)C(=O)C2C1C(=O)O` (stereo not drawn), 172 to 174 °C.
Under `CCc1ccc(C(=O)O)cc1S(=O)(=O)Cl` stands 181 to 183 °C; under `CN1C(=O)CC(C(=O)O)c2ccccc21` (stereo not drawn), 162 to 164 °C.
In turn, `COc1ccc(C2CC2C(=O)O)cc1` (stereo not drawn) displayed a melting point of 109 to 111 °C.
As to `COc1ccc2nc(C#N)ccc2c1`, the melting point fell in the range of 176 to 178 °C.
Under `OCc1nc2cccnc2[nH]1` stands 210 to 212 °C; under `COc1nc(C(=O)O)cc2ccccc12`, 184 to 186 °C; under `OCCOc1cncc(Br)c1`, 51 to 53 °C.
As to `Nc1cc(Cl)c(NC(=O)c2ccncc2)c(Cl)c1`, the melting point is 233 to 235 °C.
In turn, `Cc1cc(=O)n2nc(Br)sc2n1` came in with a melting point of 167 to 169 °C.
`c1cnc2[nH]cc(C3CCNCC3)c2c1`: the melting point fell in the range of 159 to 161 °C.
For `Cc1cc(C)nc(-n2nc(C)c(CC(=O)O)c2C)n1`, the melting point lay within 249 to 251 °C.
Under `Nc1ccncc1F` stands 71 to 79 °C; under `CNC(=O)c1ccc(C(=O)O)cn1`, 263 to 265 °C; under `CC1=NN(c2ccc(C(=O)O)cc2)CC1`, 261 to 263 °C.
Under `Cc1nn(-c2ccccc2)c2sc(C(=O)NN)cc12` stands 264 to 266 °C; under `Cc1nc(NC(=O)OC(C)(C)C)sc1C(N)=O`, 279 to 281 °C.
In the case of `Cc1ccc(-c2cnnn2-c2ccc(C(=O)O)cc2)cc1`, the melting point fell in the range of 236 to 238 °C.
Under `NCC(O)c1cccs1` (stereo not drawn) stands 81 to 83 °C.
To `CC(C)(C)OC(=O)Nc1cccc(CC(=O)O)c1` belongs 97 to 99 °C; to `CC(C)(C)c1ccc(Oc2ccc(C(=O)O)cn2)cc1`, 143 to 145 °C.
Under `O=C1Nc2cc(F)ccc2C1=O` stands 184 to 186 °C; under `NC(=O)CCc1csc(N)n1`, 141 to 143 °C.
Turning to `NC(=S)c1cccc(O)c1`, the melting point was 152 to 154 °C.
To `COc1ccc(C(=O)c2ccc(Cl)cc2)cc1C` belongs 121 to 123 °C; to `CN(CC(=O)O)S(N)(=O)=O`, 94 to 96 °C; to `CC(C)=CC(=O)NCc1ccc(C(=O)O)cc1`, 187 to 189 °C.
To `C=CC(=O)Nc1cc(F)cc(F)c1` belongs 155 to 157 °C; to `OCc1cn(-c2ccc(Cl)c(Cl)c2)nn1`, 142 to 144 °C; to `OC(c1cccc(F)c1)c1ccccn1` (stereo not drawn), 78 to 80 °C.
As to `Cn1cc2c(=O)[nH][nH]c(=O)c2c1-c1ccc(N)cc1`, the melting point was 349 to 351 °C.
As to `O=C(O)Cc1ccc2c(c1)OCCO2`, the melting point fell in the range of 54 to 56 °C.
`Cc1nc[nH]c1C`: the melting point lay within 103 to 105 °C.
Under `Cn1cnc(-c2cccc(N)c2)n1` stands 184 to 186 °C; under `CC(C)CN1C(=O)CN=C1S`, less than 17 °C; under `CN1CCC(NCCO)CC1`, 37 to 39 °C.
Under `O=C(O)c1cc(=O)c(OCc2ccccc2)co1` stands 179 to 181 °C; under `COc1nc2ccccc2cc1/C=C/C(=O)O`, 219 to 221 °C.
The molecule `Cc1[nH]oc(=N)c1Br` came in with a melting point of 67 to 69 °C.
`O=C(O)CCS(=O)(=O)c1ccc2c(c1)OCCO2` registered a melting point of 154 to 156 °C.
Under `CCC(CO)NC(=O)Cc1ccc(N)cc1` (stereo not drawn) stands 107 to 109 °C; under `O=C(O)C1CCN(C(=O)/C=C/c2ccccc2)CC1`, 191 to 196 °C; under `CCc1c(C(=O)O)nnn1-c1cccc(N)c1`, 179 to 181 °C.
To `CCOC(=O)c1sc(/N=C/N(C)C)c(C#N)c1C` belongs 151 to 153 °C.
Under `Nn1c(S)nnc1-c1cccnc1` stands 190 to 192 °C; under `Cc1ccc(S(=O)(=O)NCc2ccco2)cc1C(=O)O`, 178 to 180 °C; under `O=Cc1cnn2cccnc12`, 149 to 151 °C.
`N#CCC(=O)CCc1ccccc1` gave a melting point of 69 to 71 °C.
To `CC(=O)C(C#N)c1c(F)cccc1Cl` (stereo not drawn) belongs 100 to 102 °C.
Under `CCCCn1c(CCC(=O)O)nc2cc(S(=O)(=O)N3CCOCC3)ccc21` stands 136 to 138 °C; under `O=C(O)c1cc(=O)n(Cc2ccccc2)c2ccccc12`, 215 to 217 °C.
The molecule `CC(C)COc1ncc(C(=O)O)cc1Cl` showed a melting point of 106 to 108 °C.
In the case of `Brc1cnn(-c2ccncc2)c1`, the melting point is 125 to 127 °C.
In turn, `Cn1ccnc(NN)c1=O` yielded a melting point of 131 to 133 °C.
The molecule `O=C1OCCN1c1cc([N+](=O)[O-])ccc1Cl` registered a melting point of 157 to 159 °C.
To `O=S1(=O)CCC(S(=O)(=O)Cl)C1` (stereo not drawn) belongs 114 to 116 °C; to `CN(C)C(=O)COc1cccc(C(=O)O)c1`, 193 to 195 °C.
In the case of `CC(C)N(CCC(=O)O)C(=O)OC(C)(C)C`, the melting point is 65 to 67 °C.
To `O=Cc1ccc(OCCC(=O)O)cc1` belongs 132 to 134 °C.
The molecule `CCC(CC)(CNC(=O)OC(C)(C)C)C(=O)O` gave a melting point of 130 to 132 °C.
Under `NS(=O)(=O)c1cc(Br)ccc1Br` stands 199 to 201 °C; under `Cc1nn(C)c2ncc(N)cc12`, 84 to 86 °C.
Under `O=Cc1cc2c(cc1[N+](=O)[O-])OCCO2` stands 169 to 171 °C.
`COc1ccc(NCC(=O)NN)cc1` gave a melting point of 94 to 98 °C.
On to `CCc1nc2c(s1)C(O)CCC2` (stereo not drawn), for which the melting point fell in the range of 75 to 77 °C.
To `O=C(O)C(=Cc1ccc(Br)cc1)c1cccs1` belongs 199 to 200 °C; to `NCC(=O)Nc1cccc(Br)c1`, 79 to 81 °C.
As for `Cc1ccc(NC(=O)OC(C)(C)C)cc1O`, the melting point was 109 to 111 °C.
`O=S(=O)(O)c1nc2ccc(Cl)cc2[nH]1` came in with a melting point of 329 to 331 °C.
In turn, `O=C(c1ccc(F)cc1)c1cccnc1` registered a melting point of 92 to 94 °C.
Molecule `CSc1ccccc1CC(=O)O` returned a melting point of 115 to 117 °C.
To `O=C(Cc1ccccn1)c1ccc(Cl)cc1` belongs 99 to 101 °C; to `Cn1ncnc1N`, 180 to 182 °C.
`O=C(O)c1ccc2[nH]c(=O)oc2c1` gave a melting point of 307 to 309 °C.
To `COc1ccc(C(N)=O)c(O)c1` belongs 145 to 147 °C.
Consider `CC(C)(C)OC(=O)NCC1CCCCC1O` (stereo not drawn), for which the melting point was 57 to 59 °C.
With `CCc1ccc(C(=O)O)cc1[N+](=O)[O-]`, the melting point was 158 to 160 °C.
To `Cc1ccc(N)c(C)c1O` belongs 102 to 104 °C; to `O=C(O)C(Oc1ccc(Cl)cc1)c1ccccc1` (stereo not drawn), 161 to 163 °C.
To `Cc1cc(F)cc(C(=O)O)c1N` belongs 191 to 193 °C; to `CC(=O)CN1C(=O)COCC1=O`, 77 to 79 °C.
The molecule `O=C(NC1CCN(C(=O)CCl)CC1)c1ccccc1` came in with a melting point of 155 to 157 °C.
For `O=S(=O)(Cl)c1ccc(OCc2ccccc2)cc1`, the melting point lay within 95 to 97 °C.
To `Cn1cnn(CC(=O)O)c1=O` belongs 172 to 174 °C.
Under `CCCn1nc(C)c(C(=O)O)c1C` stands 113 to 115 °C; under `Cc1ccc(N)cc1NC(=O)c1ccccc1I`, 190 to 192 °C; under `O=[N+]([O-])c1ccc(COc2ccccc2)cc1`, 87 to 89 °C.
To `COc1ccc(C(C)=O)cc1CC(=O)O` belongs 122 to 124 °C.
